# From ChEMBL document CHEMBL1146869 (Bioorg Med Chem Lett, 2006)
# Tests used:
# [1] = target: T1, Prostaglandin G/H synthase 1 (Ovis aries, UniProt P05979); test: Inhibition of COX1; set-up: species or system Homo sapiens
# T1 sequence (P05979 whole entry): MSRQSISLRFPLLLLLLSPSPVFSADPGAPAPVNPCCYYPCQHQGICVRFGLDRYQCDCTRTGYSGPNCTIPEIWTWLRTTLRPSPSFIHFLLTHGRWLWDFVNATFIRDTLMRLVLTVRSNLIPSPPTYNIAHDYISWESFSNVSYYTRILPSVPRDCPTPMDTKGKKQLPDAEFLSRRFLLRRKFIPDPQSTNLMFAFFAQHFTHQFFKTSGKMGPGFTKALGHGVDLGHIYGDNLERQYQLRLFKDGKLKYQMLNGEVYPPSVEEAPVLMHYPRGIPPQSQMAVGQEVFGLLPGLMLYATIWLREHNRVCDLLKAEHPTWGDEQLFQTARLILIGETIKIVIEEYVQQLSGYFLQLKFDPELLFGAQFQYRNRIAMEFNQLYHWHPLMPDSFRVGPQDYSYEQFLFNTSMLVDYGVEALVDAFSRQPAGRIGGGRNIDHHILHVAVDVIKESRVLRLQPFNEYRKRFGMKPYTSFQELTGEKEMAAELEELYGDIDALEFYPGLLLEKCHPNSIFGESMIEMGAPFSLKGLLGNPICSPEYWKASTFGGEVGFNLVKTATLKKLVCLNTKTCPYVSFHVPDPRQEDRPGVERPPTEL
# [2] = target: T2, Prostaglandin G/H synthase 2 (Homo sapiens, UniProt P35354)
# T2 sequence (P35354 whole entry): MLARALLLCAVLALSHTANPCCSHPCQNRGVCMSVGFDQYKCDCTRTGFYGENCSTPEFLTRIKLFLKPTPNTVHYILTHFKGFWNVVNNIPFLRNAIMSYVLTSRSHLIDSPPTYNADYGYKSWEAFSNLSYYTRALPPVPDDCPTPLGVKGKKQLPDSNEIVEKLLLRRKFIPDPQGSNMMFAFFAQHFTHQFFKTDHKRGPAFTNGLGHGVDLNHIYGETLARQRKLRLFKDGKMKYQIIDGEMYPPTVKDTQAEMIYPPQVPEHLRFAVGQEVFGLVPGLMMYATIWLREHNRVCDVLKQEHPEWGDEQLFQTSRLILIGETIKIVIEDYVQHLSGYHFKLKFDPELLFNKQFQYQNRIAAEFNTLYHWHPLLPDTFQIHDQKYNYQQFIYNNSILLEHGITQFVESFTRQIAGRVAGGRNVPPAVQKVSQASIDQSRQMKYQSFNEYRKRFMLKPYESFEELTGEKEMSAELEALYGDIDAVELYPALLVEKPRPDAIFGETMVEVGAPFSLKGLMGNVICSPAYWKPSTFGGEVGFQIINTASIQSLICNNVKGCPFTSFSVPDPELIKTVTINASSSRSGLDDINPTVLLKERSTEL
# Rattus norvegicus [3] = test: Anti-inflammatory activity against carrageenan-induced paw edema in Sprague-Dawley rat at 3 mg/kg, iv after 3 hrs; format: functional, organism-based; set-up: dose 3 mg/kg, route intravenous
# Rattus norvegicus [4] = test: Anti-inflammatory activity against carrageenan-induced paw edema in Sprague-Dawley rat at 3 mg/kg, iv after 5 hrs; format: functional, organism-based; set-up: dose 3 mg/kg, route intravenous
# Rattus norvegicus [5] = test: Gastric toxicity in rat at 20 mg/kg, iv; format: organism-based; set-up: dose 20 mg/kg, route intravenous; conditions: in vivo
# [6] = Aqueous solubility of the compound; format: physicochemical; conditions: water
# Rattus norvegicus [7] = test: Gastric toxicity in rat at 40 mg/kg, iv; format: organism-based; set-up: dose 40 mg/kg, route intravenous; conditions: in vivo
Compound,IC50 [1] [nM],IC50 [2] [nM],inhibition in vivo at 3 mg/kg (Rattus norvegicus [3]) [%],inhibition in vivo at 3 mg/kg (Rattus norvegicus [4]) [%],Activity (Rattus norvegicus [5]),solubility [6] [mg/mL],Activity (Rattus norvegicus [7])
Cc1ccc(-c2cc(C(F)(F)F)nn2-c2ccc(-c3nnn[nH]3)cc2)cc1,4.1,1.9,40.2,34.7,Not Active,100,
O=C1OCC(c2ccc(-c3nn[nH]n3)cc2)=C1c1ccccc1,3.8,1.8,34.1,28,Not Active,125,
O=C([O-])Cc1ccccc1Nc1c(Cl)cccc1Cl.[Na+] [DICLOFENAC SODIUM],,,,,22.8,,51.5
CCC(=O)[N-]S(=O)(=O)c1ccc(-c2c(-c3ccccc3)noc2C)cc1.[Na+] [PARECOXIB SODIUM],,,62.8,42,,,Not Active
